Assay results taken from patent US20240277682A1, “PHARMACEUTICAL HYDRONIDONE FORMULATIONS FOR DISEASES” (Gyre Therapeutics, Inc., priority 2021, published 2024).

Test: In vitro drug-drug interaction with Entecavir and Lamivudine in human liver microsomes
Conditions: each 1.5 mM, P>0.05
Method: Entecavir and Lamivudine, were used concomitantly with Hydronidone, or individually, in the in vitro drug interaction experiments, in respective concentrations of each of 1.5 mM.

For `Nc1ccn([C@@H]2CS[C@H](CO)O2)c(=O)n1` [lamivudine, reference compound], the “drug interactions with Hydronidone (residual drug concentrations, individual vs combined medication groups)” value was “do not exhibit drug interactions with Hydronidone”.
